Source: patent US20040013643A1, “Methods for treatment of multiple sclerosis with statins” (Novlmmune S.A., priority 2000, published 2004)
Entries after “also recorded” stand apart in the source; their conditions may differ.

Experiments:
[1] = test system: CD40; experiment: IFN-γ induced CD40 expression on human vascular endothelial cells (Western blot, FACS); type: cell-based; settings: ECs
Procedure: Cell isolation and culture. Human vascular endothelial cells (ECs) were isolated from saphenous veins and mammary arteries by collagenase treatment (Worthington Biochemicals), and cultured in dishes coated with gelatin (Difco). Cells were maintained in medium 199 (1 4199; BioWhittaker) supplemented with 100 U/ml penicillin/streptomycin (BioWhittaker), 5% FCS (Gibco), 100 μg/ml heparin (Sigma) and 50 μg/ml ECGF (endothelial cell growth factor; Pel-Freez Biological). Human vascular smooth muscle (SMCs) cells were isolated from human saphenous veins and mammary arteries by explant outgrowth, and cultured in DMEM (BioWhittaker) supplemented with 1% L-glutamine (BioWhittaker), 1% penicillin/streptomycin, and 10% FCS. Both cell types were subculture following trypsinization (0.5% trypsin (Worthington Biochemicals)/0.2% EDTA (EM Science)) in P100-culture dishes (Becton Dickinson). Culture media and FCS contained less than 40 pg LPS/ml as determined by chromogenic Limulus amoebocyte-assay analysis (QLC1000; BioWhittaker).
Western blot analysis. Cells were harvested in ice-cold RIPA solubilization buffer, and total amounts of protein were determined using a bicinchoninic acid quantification assay (Pierce, Rockford, Ill.). Twenty μg of total protein/lane were separated by SDS/PAGE under reducing conditions and blotted to polyvinylidene difluoride membranes (Millipore Corp, Bedford, Mass.) using a semidry blotting apparatus (Bio-Rad, Hercules, Calif.). Blots were blocked overnight in 5% defatted dry milk/PBS/0.1% Tween, and then incubated for 1 hour at room temperature with primary antibody (1:40) (rabbit polyclonal anti-CD40 Santa Cruz, San Diego, Calif.), or mouse monoclonal anti-human P-actin (1:5000) (Phanningen) for control of loading. This was followed by a 1 hour incubation with secondary peroxidase-conjugated antibody (1:10′000), (Jackson Immunoresearch, West Grove, Pa.). All steps were performed at room temperature and in between incubation steps cells were rinsed with PBS/0.1% Tween. lmmunoreactivity was detected using the enhanced chemiluminescence detection method according to the manufacturer's instructions. (Amersharn, Ddbendorf, Switzerland), and subsequent exposure of the membranes to x-ray film. Analysis of quantification of detection was performed using AIDA software.
Flow cytometry. Cells were incubated with FITC-conjugated specific antibody (60 min, […]) and analyzed in a Becton Dickinson FACScan flow cytometer. At least 20.000 viable cells were analyzed per condition. Data were analyzed using […] software (Becton Dickinson).
Surface CD40 expression was analyzed by […] after 24 hrs.

[2] = test system: MHC class II; settings: Atorvastatin, Lovastatin, Pravastatin compared; FIG. 1a
Procedure: Cell isolation and culture. […] Flow cytometry. […] Data were analyzed using […] software (Becton Dickinson).

[3] = test system: CD40 mediated pathways; experiment: Cytokine release (MCP-1, IL-6, IL-8) from endothelial cells activated by CD40L, ELISA; type: cell-based, human; settings: ECs; CD154 stimulation with statin; L-mevalonate added
Procedure: Cytokines assay. […] Experiments were performed in the presence of polymyxin B (1 μg/ml). Antibody binding was detected by adding substrate (R&D), and absorbance measured at 450 nm using a Dynatech plate reader. The amount of IL-6, IL-8 and MCP-I detected was calculated from a standard curve prepared with the recombinant protein. Samples were assayed in duplicates.
To investigate the functional consequences of inhibition of CD40 expression by statins on Endothelial Cells activation by CD40L, secreted cytokines were analyzed such as Interleukin-6 (IL-6), interleukin-8 (IL-8), macrophages chemoattractant protein-1 (MCP-1).

Compound: CC(C)c1c(C(=O)Nc2ccccc2)c(-c2ccccc2)c(-c2ccc(F)cc2)n1CC[C@@H](O)C[C@@H](O)CC(=O)O [Atorvastatin]
- IFN-γ induced CD40 expression ([1]; IFN-γ 500 U/ml, 24 hrs): repressed this induction of CD40 in a dose-dependant manner; also recorded: decreases IFN-γ induced CD40 protein expression on human atheroma-associated cells in a dose-dependant manner
- concentration range over which the effect on IFN-γ induced CD40 was observed ([1]; IFN-γ 500 U/ml, 24 hrs, FIG. 7): 0.08 to 0.5 µM
- IFN-γ induced CD40 expression ([1]; IFN-γ 500 U/ml, 24 hrs, listed as atorvastatin): decreased
- effect on IFN-γ induced CD40 in the presence of L-mevalonate ([1]; with L-mevalonate): markedly reduced
- CD40 expression, treatment with statin alone ([1]; without IFN-γ): had an effect on CD40 expression
- relative potency as MHC class II repressor among the forms tested [2]: most powerful MHC class II repressor

Compound: CC[C@H](C)C(=O)O[C@H]1C[C@@H](C)C=C2C=C[C@H](C)[C@H](CC[C@@H]3C[C@@H](O)CC(=O)O3)[C@H]21 [Lovastatin]
- IFN-γ induced CD40 expression ([1]; IFN-γ 500 U/ml, 24 hrs): decreased

Compound: L-mevalonate
- reversal of the statin effect by addition of L-mevalonate [3]: significantly reverses the process
